Data published in PubChem BioAssay (NCI).
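Grown in 96-well plates, cells were treated for 48 hours with each compound at five concentrations. Insufficient inhibition: endpoint recorded as highest concentration tested. At the GI50, growth is halved. TGI: concentration producing complete growth inhibition.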

How the values were obtained:
Test in all cases: DTP human tumour cell line panel, 48 h
786-0 renal = tested on: 786-0 renal
A498 renal = tested on: A498 renal
A549 NSCLC = tested on: A549 NSCLC
ACHN renal = tested on: ACHN renal
BT-549 breast = tested on: BT-549 breast
CAKI-1 renal = tested on: CAKI-1 renal
COLO 205 colon = tested on: COLO 205 colon
DU-145 prostate = tested on: DU-145 prostate
HCC-2998 colon = tested on: HCC-2998 colon
HCT-116 colon = tested on: HCT-116 colon
HCT-15 colon = tested on: HCT-15 colon
HL-60(TB) leukemia = tested on: HL-60(TB) leukemia
HOP-62 NSCLC = tested on: HOP-62 NSCLC
HOP-92 NSCLC = tested on: HOP-92 NSCLC
HS 578T breast = tested on: HS 578T breast
IGROV1 ovarian = tested on: IGROV1 ovarian
K-562 leukemia = tested on: K-562 leukemia
KM12 colon = tested on: KM12 colon
LOX IMVI melanoma = tested on: LOX IMVI melanoma
M14 melanoma = tested on: M14 melanoma
MALME-3M melanoma = tested on: MALME-3M melanoma
MCF7 breast = tested on: MCF7 breast
MDA-MB-231 breast = tested on: MDA-MB-231 breast
MDA-MB-435 = tested on: MDA-MB-435
MOLT-4 leukemia = tested on: MOLT-4 leukemia
NCI-H226 lung = tested on: NCI-H226 lung
NCI-H23 lung = tested on: NCI-H23 lung
NCI-H460 lung = tested on: NCI-H460 lung
NCI-H522 lung = tested on: NCI-H522 lung
NCI/ADR-RES ovarian = tested on: NCI/ADR-RES ovarian
OVCAR-3 ovarian = tested on: OVCAR-3 ovarian
OVCAR-5 ovarian = tested on: OVCAR-5 ovarian
OVCAR-8 ovarian = tested on: OVCAR-8 ovarian
PC-3 prostate = tested on: PC-3 prostate
RPMI-8226 leukemia = tested on: RPMI-8226 leukemia
RXF 393 renal = tested on: RXF 393 renal
SF-268 CNS = tested on: SF-268 CNS
SF-295 CNS = tested on: SF-295 CNS
SF-539 CNS = tested on: SF-539 CNS
SK-MEL-2 melanoma = tested on: SK-MEL-2 melanoma
SK-MEL-28 melanoma = tested on: SK-MEL-28 melanoma
SK-MEL-5 melanoma = tested on: SK-MEL-5 melanoma
SK-OV-3 ovarian = tested on: SK-OV-3 ovarian
SN12C renal = tested on: SN12C renal
SNB-19 CNS = tested on: SNB-19 CNS
SNB-75 CNS = tested on: SNB-75 CNS
SR leukemia = tested on: SR leukemia
SW-620 colon = tested on: SW-620 colon
T-47D breast = tested on: T-47D breast
TK-10 renal = tested on: TK-10 renal
UACC-257 melanoma = tested on: UACC-257 melanoma
UACC-62 melanoma = tested on: UACC-62 melanoma
UO-31 renal = tested on: UO-31 renal

For `C/C(=C\CCc1ccoc1)CC/C=C(\C)CCCC1=CC(=O)OC1`, the GI50 (786-0 renal) was 9.16 µM, the TGI (786-0 renal) was 42.2 µM and the GI50 (A498 renal) was 1.29 µM. For the same molecule, the TGI (A498 renal) was 16.5 µM, the GI50 (A549 NSCLC) was 4.37 µM and the TGI (A549 NSCLC) was > 100 µM. The GI50 (ACHN renal) was 12.6 µM, the TGI (ACHN renal) was > 100 µM and the GI50 (BT-549 breast) was 6.24 µM. The TGI (BT-549 breast) was 25.9 µM, the GI50 (CAKI-1 renal) was 5.01 µM and the TGI (CAKI-1 renal) was > 100 µM. It also gave a GI50 (COLO 205 colon) of 4.96 µM, a TGI (COLO 205 colon) of 23.1 µM and a GI50 (DU-145 prostate) of 24.8 µM. The TGI (DU-145 prostate) was > 100 µM, the GI50 (HCC-2998 colon) was 8.4 µM and the TGI (HCC-2998 colon) was 29.1 µM. It also gave a GI50 (HCT-116 colon) of 4.02 µM, a TGI (HCT-116 colon) of 18.8 µM and a GI50 (HCT-15 colon) of 4.47 µM. It also gave a TGI (HCT-15 colon) of 20 µM, a GI50 (HL-60(TB) leukemia) of 6.3 µM and a TGI (HL-60(TB) leukemia) of 32.7 µM. For the same molecule, the GI50 (HOP-62 NSCLC) was 16 µM, the TGI (HOP-62 NSCLC) was 55 µM and the GI50 (HOP-92 NSCLC) was 2.09 µM. The TGI (HOP-92 NSCLC) was 13 µM, the GI50 (HS 578T breast) was 3.26 µM and the TGI (HS 578T breast) was 36 µM. The GI50 (IGROV1 ovarian) was 19.5 µM, the TGI (IGROV1 ovarian) was > 100 µM and the GI50 (K-562 leukemia) was 4.8 µM. For the same molecule, the TGI (K-562 leukemia) was > 100 µM, the GI50 (KM12 colon) was 8.44 µM and the TGI (KM12 colon) was 23.7 µM. The GI50 (LOX IMVI melanoma) was 4.84 µM, the TGI (LOX IMVI melanoma) was 17.2 µM and the GI50 (M14 melanoma) was 7.28 µM. For the same molecule, the TGI (M14 melanoma) was 45 µM, the GI50 (MALME-3M melanoma) was 13.7 µM and the TGI (MALME-3M melanoma) was 31.5 µM. The GI50 (MCF7 breast) was 3.47 µM, the TGI (MCF7 breast) was 36.9 µM and the GI50 (MDA-MB-231 breast) was 5.97 µM. For the same molecule, the TGI (MDA-MB-231 breast) was 28.9 µM, the GI50 (MDA-MB-435) was 5.76 µM and the TGI (MDA-MB-435) was 34.1 µM. It also gave a GI50 (MOLT-4 leukemia) of 3.94 µM, a TGI (MOLT-4 leukemia) of 15.4 µM and a GI50 (NCI-H226 lung) of 11 µM. It also gave a TGI (NCI-H226 lung) of 29.4 µM, a GI50 (NCI-H23 lung) of 4.74 µM and a TGI (NCI-H23 lung) of 29.6 µM. For the same molecule, the GI50 (NCI-H460 lung) was 5.21 µM, the TGI (NCI-H460 lung) was 27.8 µM and the GI50 (NCI-H522 lung) was 5.45 µM. For the same molecule, the TGI (NCI-H522 lung) was 22.2 µM, the GI50 (NCI/ADR-RES ovarian) was 5.42 µM and the TGI (NCI/ADR-RES ovarian) was 31 µM. It also gave a GI50 (OVCAR-3 ovarian) of 9.69 µM, a TGI (OVCAR-3 ovarian) of 25 µM and a GI50 (OVCAR-5 ovarian) of 12.5 µM. The TGI (OVCAR-5 ovarian) was 68.9 µM, the GI50 (OVCAR-8 ovarian) was 5.11 µM and the TGI (OVCAR-8 ovarian) was 29.8 µM. It also gave a GI50 (PC-3 prostate) of 3.2 µM, a TGI (PC-3 prostate) of 24.9 µM and a GI50 (RPMI-8226 leukemia) of 2.85 µM. It also gave a TGI (RPMI-8226 leukemia) of 16.7 µM, a GI50 (RXF 393 renal) of 3.17 µM and a TGI (RXF 393 renal) of 15.7 µM. For the same molecule, the GI50 (SF-268 CNS) was 17.7 µM, the TGI (SF-268 CNS) was > 100 µM and the GI50 (SF-295 CNS) was 3.79 µM. It also gave a TGI (SF-295 CNS) of 18 µM, a GI50 (SF-539 CNS) of 13.2 µM and a TGI (SF-539 CNS) of 40.1 µM. For the same molecule, the GI50 (SK-MEL-2 melanoma) was 9.35 µM, the TGI (SK-MEL-2 melanoma) was 22.6 µM and the GI50 (SK-MEL-28 melanoma) was 7.98 µM. The TGI (SK-MEL-28 melanoma) was 46.7 µM, the GI50 (SK-MEL-5 melanoma) was 2.55 µM and the TGI (SK-MEL-5 melanoma) was 6.66 µM. For the same molecule, the GI50 (SK-OV-3 ovarian) was 12.6 µM, the TGI (SK-OV-3 ovarian) was 50.4 µM and the GI50 (SN12C renal) was 11.2 µM. For the same molecule, the TGI (SN12C renal) was 39.6 µM, the GI50 (SNB-19 CNS) was 17.7 µM and the TGI (SNB-19 CNS) was > 100 µM. For the same molecule, the GI50 (SNB-75 CNS) was 4.46 µM, the TGI (SNB-75 CNS) was 52 µM and the GI50 (SR leukemia) was 3.45 µM. For the same molecule, the TGI (SR leukemia) was 17.1 µM, the GI50 (SW-620 colon) was 12.1 µM and the TGI (SW-620 colon) was > 100 µM. For the same molecule, the GI50 (T-47D breast) was 2.27 µM, the TGI (T-47D breast) was 22.9 µM and the GI50 (TK-10 renal) was 16.9 µM. The TGI (TK-10 renal) was 63.9 µM, the GI50 (UACC-257 melanoma) was 2.81 µM and the TGI (UACC-257 melanoma) was 11.3 µM. For the same molecule, the GI50 (UACC-62 melanoma) was 4.73 µM, the TGI (UACC-62 melanoma) was 29.7 µM and the GI50 (UO-31 renal) was 4.35 µM. The TGI (UO-31 renal) was 48.7 µM.
